The test system of the assay is 3T3-L1 preadipocytes. Kind of assay: FD-glucose uptake in 3T3-L1 preadipocytes. Format: cell-based, mouse. The settings on record: for glucose uptake compared to non-stimulated 3T3-L1 preadipocytes: 30 mins, insulin 10 μg/ml, EREG 50 ng/ml, forskolin 4 μg/ml. The procedure: Non-differentiated, 90% confluent 3T3-L1 cells were starved with glucose-deprived medium for 40 min. Then cells were treated in the presence and absence of different concentrations of nanoscaffold #2 and bovine insulin (200 μg/mL), all of reagents dissolved in the same glucose-deprived medium but containing fluorescent-D (FD)-glucose for 80 min. Thereafter, the FD glucose uptake was measured according to manufacturer's instructions (Cayman Chemical, USA, cat #600471). […] Non-differentiated, 90% confluent 3T3-L1 cells treated in the presence and absence of different concentrations of nanoscaffold #2 and bovine insulin (10 μg/mL) or mouse epiregulin (EREG, 0.05 μg/mL) and incubated for 24 h. Then cells were starved with glucose-deprived medium for 40 min and, then incubated with fluorescent-D (FD)-glucose for 80 min. Thereafter, the FD glucose uptake was measured according to manufacturer's instructions (Cayman Chemical, USA, cat #600471). Data are shown as percent of uptake in the presence of insulin (100%).
Non-differentiated, 90% confluent 3T3-L1 cells treated in the presence of bovine insulin (10 μg/mL), mouse epiregulin (EREG, 0.05 μg/mL), or their combinations and incubated for 24 h. Then cells were starved with glucose-deprived medium for 40 min and, then incubated with fluorescent-D (FD)-glucose for 80 min. Thereafter, the FD glucose uptake was measured according to manufacturer's instructions (Cayman Chemical, USA, cat #600471).
Non-differentiated, 90% confluent 3T3-L1 cells were starved with glucose-deprived medium for 50 min. Then cells were treated in the presence and absence of different concentrations of mouse recombinant IGFBP4 with and without nanoscaffold #2 and human insulin (10 μg/mL). All of reagents were dissolved in the same glucose-deprived medium but containing fluorescent-D (FD)-glucose for 90 min. Thereafter, the FD glucose uptake was measured according to manufacturer's instructions (Cayman Chemical, USA, cat #600471).
Glucose uptake assay was performed using glucose uptake cell-based assay kit (Cayman Chemical, Ann Arbor, MI). 3T3-L1 or human preadipocytes were cultured at a density of 5×10^4 per well into a 96-well plate (n=7) in high glucose media and grown overnight. Old cell culture medium was removed the next day and washed with PBS to remove residual glucose. Supplied 2-deoxy-2-[(7-nitro-2,1,3-benzoxadiazol-4-yl)amino]-D-glucose) (2-NBDG) was diluted to 150 μg/mL in DMEM medium without glucose, phenol red, L-glutamine, sodium pyruvate, and HEPES (Life technologies, Grand Island, New York). 100 μL of 2-NBDG glucose free medium with or without recombinant EREG and other treatments was added to the plated cells. After incubating at 37° C. for 30 minutes, cells were washed gently two times with 200 μL of glucose assay buffer. 100 μL of the assay buffer was added to each well and measured for fluorescence at an excitation/emission of 485/535 nm.
Fluorescence glucose uptake (FD-glucose assay) was performed as described PMID: 32065973, using insulin, 1.7 μM and different AACs at concentration 0.1 μM.
FD-glucose uptake in mouse 3T3-L1 preadipocytes (n=8 per treatment) treated with vehicle (Veh; PBS, open bar) or hINS (1.7 μM), mouse leptin (mLep; 12.5 nM, hatched bar), or AAC2 (0.1 μM black bar) in the presence and absence of GLUT1 inhibitor (BAY-876; 10 nM in DMSO). Cells were pre-treated with or without BAY-876 for 40 min and then FD glucose and treatment reagents were added for additional 80 min of incubation. Data (%) was normalized to FD-glucose uptake in control (Veh) 3T3-L1 cells without inhibitor (100%). Student's independent t-test.

For “EREG: Epiregulin, member of the epidermal growth factor family; recombinant mouse or human protein”, the “glucose uptake compared to non-stimulated 3T3-L1 preadipocytes” value was 187%. Further, the “glucose uptake, dose dependence” value (different EREG concentrations) is “dose-dependent fashion”.
Consider insulin: insulin (bovine or human), for which the “glucose uptake compared to non-stimulated 3T3-L1 preadipocytes” value came to 174%. Further, where the note is “hINS 1.7 μM, AAC2 0.1 μM, 80 min, FIG. 42A”, the “glucose uptake in preadipocytes” value is on record as “increase”.

Source of the values: patent US12697366B2, “Thermogenic compositions and methods” (Ohio State Innovation Foundation, priority 2016, dated 2026).
